Results taken from BigSolDB 2.1.

COc1ccc2c(c1)c(CC(=O)O)c(C)n2C(=O)c1ccc(Cl)cc1
solubility (mole fraction)
Conditions	293.15 K	298.15 K	303.15 K	308.15 K	313.15 K
in 1,4-dioxane	0.0249	0.029	0.0343	0.0416	0.0477
in water	7.81e-07	9.32e-07	1.1e-06	1.27e-06	1.52e-06
